The structures appear in SMILES notation.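 Compound exposure: 48 hours, 5 concentrations, 96-well plates. GI50 = concentration required for 50% inhibition of growth. The concentration for full growth arrest is given as TGI.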

Some test systems named below: DMS 114 small cell lung; SNB-78 CNS; DLD-1 colon; M19-MEL melanoma; DMS 273 small cell lung; HOP-18 NSCLC; LXFL 529 NSCLC; MDA-N; RXF-631 renal.
Holding throughout (test): NCI tumour cell line growth inhibition, 48 h

On to `COC(=O)C1(F)C(=O)NC(=O)NC1OC` (configuration not stated), for which the TGI with DMS 114 small cell lung, in the assay with SNB-78 CNS, in the assay with DLD-1 colon, in the assay on M19-MEL melanoma, in the assay with DMS 273 small cell lung and in the assay with HOP-18 NSCLC was greater than 100 µM each time.

For `C[N+](C)=c1nc(N2CCOCC2)ss1`, the TGI in the assay with SNB-78 CNS, in the assay on LXFL 529 NSCLC and in the assay with DMS 273 small cell lung was greater than 100 µM each time.

Consider `COc1ccc(/C=C/C(=O)C(C)(C)Br)cc1`, for which the TGI with MDA-N amounted to 39.4 µM.

Consider `NC(=O)c1c[se]c(C2OC(COP(=O)(O)CP(=O)(O)OCC3OC(n4cnc5c(N)ncnc54)C(O)C3O)C(O)C2O)n1` (configuration not stated), for which the TGI in the assay with DMS 114 small cell lung, in the assay on SNB-78 CNS, in the assay with LXFL 529 NSCLC, with DLD-1 colon, in the assay with M19-MEL melanoma and with DMS 273 small cell lung was greater than 100 µM each time. For the same compound, in the assay on HOP-18 NSCLC, the TGI was greater than 100 µM.

Turning to `CC1(C)OC(COCCOCCCCCO)C(COCCOCCCCCO)O1` (configuration not stated), the TGI in the assay on DMS 114 small cell lung, in the assay on SNB-78 CNS, with LXFL 529 NSCLC, in the assay with DLD-1 colon, in the assay with RXF-631 renal and in the assay on M19-MEL melanoma was greater than 100 µM each time. Further, the TGI with DMS 273 small cell lung and in the assay on HOP-18 NSCLC was greater than 100 µM each time.

`COC(=O)c1cc2c3c(ccc2[nH]1)N(C(=O)c1cc2c4c(ccc2[nH]1)N(C(=O)c1cc2c5c(ccc2[nH]1)N(C(N)=O)CC5)CC4)CC3`: the TGI with DMS 114 small cell lung is 57.3 µM; with SNB-78 CNS, greater than 100 µM; in the assay on DLD-1 colon, greater than 100 µM; with DMS 273 small cell lung, greater than 100 µM; in the assay on HOP-18 NSCLC, greater than 100 µM.

Regarding `O=C(O)C1C2C=CC(O2)C1C(=O)Nc1ncccn1` (configuration not stated), the TGI with MDA-N was greater than 100 µM.

Regarding `Cc1ccccc1NC(=O)C(=O)CC(=O)c1ccc([N+](=O)[O-])cc1`, the TGI in the assay on DMS 114 small cell lung, in the assay on SNB-78 CNS, in the assay on LXFL 529 NSCLC, in the assay on DLD-1 colon, with RXF-631 renal and with M19-MEL melanoma was greater than 100 µM each time. The TGI in the assay with DMS 273 small cell lung and with HOP-18 NSCLC was greater than 100 µM in each case.

`O=C(O)Cn1ccnc1[N+](=O)[O-]`: in the assay on MDA-N, the TGI was greater than 100 µM.

Take `COc1cc2cccc(N=Cc3c(Br)ccc(OC)c3OC(C)C)c2cc1OC`: the TGI was 63.5 µM in the assay on DMS 114 small cell lung; greater than 100 µM with SNB-78 CNS; greater than 100 µM with LXFL 529 NSCLC; 82.2 µM in the assay with DLD-1 colon; greater than 100 µM in the assay with M19-MEL melanoma.

In the case of `CC(C)(CO)N=Cc1ccccc1[O-].CC(C)(CO)N=Cc1ccccc1[O-].[Co+2]`, the GI50 in the assay on DMS 114 small cell lung is 18.7 µM; in the assay with SNB-78 CNS, greater than 100 µM; with LXFL 529 NSCLC, 19.2 µM; in the assay on DLD-1 colon it was 26.6 µM; with M19-MEL melanoma, greater than 73.8 µM; in the assay with DMS 273 small cell lung it was greater than 85.9 µM. Further, in the assay on HOP-18 NSCLC, the GI50 is 29.4 µM. The TGI in the assay with DMS 114 small cell lung, in the assay on SNB-78 CNS, in the assay on LXFL 529 NSCLC, in the assay with DLD-1 colon, with M19-MEL melanoma and in the assay with DMS 273 small cell lung was greater than 100 µM throughout. The compound further showed a TGI in the assay on HOP-18 NSCLC greater than 100 µM.

For `O=[N+]([O-])C1C2C=CC(C2)[C@H]1c1ccc(Cl)cc1Cl` (some centres not stated), the TGI in the assay with SNB-78 CNS, with LXFL 529 NSCLC, with DLD-1 colon, in the assay on M19-MEL melanoma and in the assay on DMS 273 small cell lung was greater than 100 µM throughout.

Regarding `O=C(O)C1C(C(=O)O)C2(Cl)C(Cl)=C(Cl)C1(Cl)C2(Cl)Cl.[Cd]` (configuration not stated), in the assay on MDA-N, the GI50 is 8.5 µM and the TGI is 22.6 µM.

Turning to `c1ccc(NC[Si]23OCCN(CCO2)CCO3)cc1`, the TGI in the assay with DMS 114 small cell lung, with SNB-78 CNS, with LXFL 529 NSCLC, in the assay with DLD-1 colon, in the assay on RXF-631 renal and in the assay on M19-MEL melanoma was greater than 100 µM each time. The TGI in the assay on DMS 273 small cell lung and with HOP-18 NSCLC was greater than 100 µM each time.

For `COc1cc([C@H]2c3[nH]c4ccccc4c3C[C@H]3COC(=O)N32)cc(OC)c1O`, the TGI is greater than 100 µM with SNB-78 CNS; greater than 100 µM in the assay with DLD-1 colon; greater than 100 µM with M19-MEL melanoma; 44.2 µM in the assay with DMS 273 small cell lung; greater than 100 µM in the assay on HOP-18 NSCLC.

As to `CC(C)(C)c1cc(CCC(=O)Nc2ccc(Cl)cc2Cl)nc(N)n1`, the TGI with DMS 114 small cell lung, with SNB-78 CNS, with LXFL 529 NSCLC, with DLD-1 colon, with RXF-631 renal and with M19-MEL melanoma was greater than 100 µM in each case. For the same compound, the TGI with HOP-18 NSCLC was greater than 100 µM.

As to `O=C1C(c2ccccc2)=C(c2ccccc2)[C@H](c2ccccc2)[C@]1(Cc1nnn(-c2ccc([N+](=O)[O-])cc2)c1N1CCOCC1)c1ccccc1`, the TGI with DMS 114 small cell lung, in the assay on SNB-78 CNS, with LXFL 529 NSCLC, in the assay on DLD-1 colon, in the assay with RXF-631 renal and in the assay with M19-MEL melanoma was greater than 37.5 µM in each case. Besides, the TGI with DMS 273 small cell lung and in the assay on HOP-18 NSCLC was greater than 37.5 µM in each case.

In the assay on MDA-N, `CC(C)(C)[Si](C)(C)OCC1OC(n2cnc3c(N)ncnc32)C(O)C1O` (configuration not stated) had a TGI greater than 100 µM.

For the compound `O=C(O)[C@@H]1CCCC[C@@H]1C(=O)N(C1CCCCC1)C1CCCCC1`, the TGI in the assay on DMS 114 small cell lung, in the assay on SNB-78 CNS, with LXFL 529 NSCLC, with DLD-1 colon, with RXF-631 renal and with M19-MEL melanoma was greater than 100 µM each time. In addition, the TGI with DMS 273 small cell lung is greater than 100 µM.

Regarding `COc1ccc(CC2=NCCc3cc(OC)c(OC)cc32)cc1Br`, the TGI was 48.3 µM in the assay on DMS 114 small cell lung; greater than 100 µM in the assay with SNB-78 CNS; greater than 100 µM in the assay with LXFL 529 NSCLC; greater than 100 µM in the assay on DLD-1 colon; greater than 100 µM in the assay with M19-MEL melanoma; 33.7 µM in the assay with DMS 273 small cell lung. Also, the TGI in the assay with HOP-18 NSCLC is greater than 100 µM.

Take `COc1nc2c(c(O)c(C)c(=O)n2OC2OC(COC(C)=O)C(OC(C)=O)C(OC(C)=O)C2OC(C)=O)c(=O)n1C` (configuration not stated): the TGI with DMS 114 small cell lung, in the assay on SNB-78 CNS, in the assay with LXFL 529 NSCLC, in the assay on DLD-1 colon, in the assay on RXF-631 renal and with M19-MEL melanoma was greater than 100 µM throughout. In the assay with DMS 273 small cell lung, this compound yielded a TGI greater than 100 µM.

For `COc1cc(O)c(C(C)=O)c(O)c1`, the TGI with MDA-N is greater than 100 µM.

(Values after PubChem BioAssay (NCI).)
